Measured values taken from patent publication US20130158362A1 (INFACARE PHARMACEUTICAL CORPORATION, priority 2011, published 2013).
Entries after “also recorded” stand apart in the source; their conditions may differ.

Assays:
[1] = Phase 2b trial: pharmacokinetics of stannsoporfin in plasma after IM injection; format: in vivo, human
Description: Pharmacokinetic Assessments: Subjects were stratified into 2 groups having different sampling times to better characterize the PK curves.

[2] = tested on: term and late preterm subjects with hyperbilirubinemia; test: Phase 2b trial: adverse events; format: in vivo, human
Description: (§1) Safety measurements included adverse events (AEs), hematology and chemistry laboratory tests, vital sign measurements, physical examinations, dermatological assessments, hearing assessments, ophthalmological assessments, neurological assessments, and quantitative electrocardiograms (ECGs).
Safety population: Defined as all subjects who were enrolled in the clinical study and received IMP. Subjects were summarized according to the treatment received.
Analysis of Safety Parameters: Descriptive statistical methods were used to summarize safety parameters based on the safety population. All treatment-emergent adverse events (TEAEs) were summarized. Tabular summaries were also presented for all TEAEs considered potentially related to the IMP, TEAEs by intensity, serious adverse events (SAEs), and AEs leading to discontinuation.

[3] = tested on: term and late preterm subjects with hyperbilirubinemia; test: Phase 2b trial: dermatological assessment (rash); format: in vivo, human
Description: In some embodiments, dermatological examinations comprise the identification of photosensitive reactions if any. Photosensitive reaction may occur with metalloporphyrins and broad spectrum light. Photosensitive reactions include skin rashes.
as §1

heme oxygenase = conditions: cited from earlier work
[4] = animal studies; doses approximately equivalent to the proposed human dose; cited from earlier work

tin IV mesoporphyrin IX dichloride [Stannsoporfin]
T1/2 ([1]; 1.5 mg/kg IM): 5.46 h | Tmax ([1]; 1.5 mg/kg IM): 1.87 h | T1/2 ([1]; 3.0 mg/kg IM): 10.7 h | Tmax ([1]; 3.0 mg/kg IM): 1.52 h | T1/2 ([1]; 4.5 mg/kg IM): 9.86 h | Tmax ([1]; 4.5 mg/kg IM): 2.3 h | T1/2, Mean of the three doses ([1]; 1.5, 3.0 and 4.5 mg/kg IM): 8.6 h | Tmax, Mean of the three doses ([1]; 1.5, 3.0 and 4.5 mg/kg IM): 1.89 h | increase in Cmax with dose ([1]; 1.5 to 4.5 mg/kg dose range): dose-proportional increase | elimination half-life ([1]; IM injection, final data): approximately 10 hours | time of peak plasma concentrations post-treatment ([1]; IM injection, final data): ≤ 1 h | time plasma stannsoporfin concentrations measurable post treatment ([1]; all subjects at doses of 3 mg/kg and above): at least 48 hours | intersubject variability in Cmax and AUCs ([1]; neonates, IM): ≤ 30% | # of subjects one AE, n (%) ([2]; 1.5 mg/kg IM): 8 (47.1%) | AE Anal Abscess: subjects, n (%) ([2]; 1.5 mg/kg IM): 0 | AE Anemia: subjects, n (%) ([2]; 1.5 mg/kg IM): 0 | AE Bradycardia: subjects, n (%) ([2]; 1.5 mg/kg IM): 0 | AE CO2 decreased: subjects, n (%) ([2]; 1.5 mg/kg IM): 0 | AE CRP increased: subjects, n (%) ([2]; 1.5 mg/kg IM): 1 (5.9%) | AE Contusion: subjects, n (%) ([2]; 1.5 mg/kg IM): 1 (5.9%) | AE Depressed level consciousness: subjects, n (%) ([2]; 1.5 mg/kg IM): 0 | AE Diaper dermatitis: subjects, n (%) ([2]; 1.5 mg/kg IM): 2 (11.8%) | AE Erythema toxicum: subjects, n (%) ([2]; 1.5 mg/kg IM): 0 | AE Erythema: subjects, n (%) ([2]; 1.5 mg/kg IM): 0 | AE Flushing: subjects, n (%) ([2]; 1.5 mg/kg IM): 0 | AE Hemangioma: subjects, n (%) ([2]; 1.5 mg/kg IM): 1 (5.9%) | AE Hemoglobin increased: subjects, n (%) ([2]; 1.5 mg/kg IM): 0 | AE Hyperbilirubinemia: subjects, n (%) ([2]; 1.5 mg/kg IM): 2 (11.8%) | AE Jaundice: subjects, n (%) ([2]; 1.5 mg/kg IM): 5 (29.4%) | AE Leukocytosis: subjects, n (%) ([2]; 1.5 mg/kg IM): 0 | AE Meningitis: subjects, n (%) ([2]; 1.5 mg/kg IM): 0 | AE Oral Candidiasis: subjects, n (%) ([2]; 1.5 mg/kg IM): 0 | AE Rash neonatal: subjects, n (%) ([2]; 1.5 mg/kg IM): 0 | AE Rash papular: subjects, n (%) ([2]; 1.5 mg/kg IM): 0 | AE Rash: subjects, n (%) ([2]; 1.5 mg/kg IM): 1 (5.9%) | AE Seborrhoeic dermatitis: subjects, n (%) ([2]; 1.5 mg/kg IM): 0 | AE Serum Glucose decreased: subjects, n (%) ([2]; 1.5 mg/kg IM): 0 | AE Serum sodium increased: subjects, n (%) ([2]; 1.5 mg/kg IM): 0 | AE Skin exfoliation: subjects, n (%) ([2]; 1.5 mg/kg IM): 1 (5.9%) | AE Thrombocytopenia: subjects, n (%) ([2]; 1.5 mg/kg IM): 0 | AE Umbilical Hernia: subjects, n (%) ([2]; 1.5 mg/kg IM): 0 | AE Vomiting: subjects, n (%) ([2]; 1.5 mg/kg IM): 0 | Total AEs ([2]; 1.5 mg/kg IM, N = 17): 17 | # of subjects one AE, n (%) ([2]; 3.0 mg/kg IM): 10 (55.6%) | AE Anal Abscess: subjects, n (%) ([2]; 3.0 mg/kg IM): 1 (5.6%) | AE Anemia: subjects, n (%) ([2]; 3.0 mg/kg IM): 1 (5.6%) | AE Bradycardia: subjects, n (%) ([2]; 3.0 mg/kg IM): 0 | AE CO2 decreased: subjects, n (%) ([2]; 3.0 mg/kg IM): 1 (5.6%) | AE CRP increased: subjects, n (%) ([2]; 3.0 mg/kg IM): 0 | AE Contusion: subjects, n (%) ([2]; 3.0 mg/kg IM): 0 | AE Depressed level consciousness: subjects, n (%) ([2]; 3.0 mg/kg IM): 0 | AE Diaper dermatitis: subjects, n (%) ([2]; 3.0 mg/kg IM): 1 (5.6%) | AE Erythema toxicum: subjects, n (%) ([2]; 3.0 mg/kg IM): 3 (16.7%) | AE Erythema: subjects, n (%) ([2]; 3.0 mg/kg IM): 1 (5.6%) | AE Flushing: subjects, n (%) ([2]; 3.0 mg/kg IM): 1 (5.6%) | AE Hemangioma: subjects, n (%) ([2]; 3.0 mg/kg IM): 0 | AE Hemoglobin increased: subjects, n (%) ([2]; 3.0 mg/kg IM): 0 | AE Hyperbilirubinemia: subjects, n (%) ([2]; 3.0 mg/kg IM): 1 (5.6%) | AE Jaundice: subjects, n (%) ([2]; 3.0 mg/kg IM): 0 | AE Leukocytosis: subjects, n (%) ([2]; 3.0 mg/kg IM): 0 | AE Meningitis: subjects, n (%) ([2]; 3.0 mg/kg IM): 0 | AE Oral Candidiasis: subjects, n (%) ([2]; 3.0 mg/kg IM): 0 | AE Rash neonatal: subjects, n (%) ([2]; 3.0 mg/kg IM): 1 (5.6%) | AE Rash papular: subjects, n (%) ([2]; 3.0 mg/kg IM): 0 | AE Rash: subjects, n (%) ([2]; 3.0 mg/kg IM): 0 | AE Seborrhoeic dermatitis: subjects, n (%) ([2]; 3.0 mg/kg IM): 1 (5.6%) | AE Serum Glucose decreased: subjects, n (%) ([2]; 3.0 mg/kg IM): 1 (5.6%) | AE Serum sodium increased: subjects, n (%) ([2]; 3.0 mg/kg IM): 1 (5.6%) | AE Skin exfoliation: subjects, n (%) ([2]; 3.0 mg/kg IM): 0 | AE Thrombocytopenia: subjects, n (%) ([2]; 3.0 mg/kg IM): 0 | AE Umbilical Hernia: subjects, n (%) ([2]; 3.0 mg/kg IM): 1 (5.6%) | AE Vomiting: subjects, n (%) ([2]; 3.0 mg/kg IM): 0 | Total AEs ([2]; 3.0 mg/kg IM, N = 18): 16 | serious adverse event Anemia: Outcome ([2]; 3.0 mg/kg, Rh incompatibility, required transfusion): Resolved | # of subjects one AE, n (%) ([2]; 4.5 mg/kg IM): 3 (37.5%) | AE Anal Abscess: subjects, n (%) ([2]; 4.5 mg/kg IM): 0 | AE Anemia: subjects, n (%) ([2]; 4.5 mg/kg IM): 1 (12.5%) | AE Bradycardia: subjects, n (%) ([2]; 4.5 mg/kg IM): 1 (12.5%) | AE CO2 decreased: subjects, n (%) ([2]; 4.5 mg/kg IM): 0 | AE CRP increased: subjects, n (%) ([2]; 4.5 mg/kg IM): 0 | AE Contusion: subjects, n (%) ([2]; 4.5 mg/kg IM): 0 | AE Depressed level consciousness: subjects, n (%) ([2]; 4.5 mg/kg IM): 1 (12.5%) | AE Diaper dermatitis: subjects, n (%) ([2]; 4.5 mg/kg IM): 0 | AE Erythema toxicum: subjects, n (%) ([2]; 4.5 mg/kg IM): 0 | AE Erythema: subjects, n (%) ([2]; 4.5 mg/kg IM): 1 (12.5%) | AE Flushing: subjects, n (%) ([2]; 4.5 mg/kg IM): 0 | AE Hemangioma: subjects, n (%) ([2]; 4.5 mg/kg IM): 0 | AE Hemoglobin increased: subjects, n (%) ([2]; 4.5 mg/kg IM): 1 (12.5%) | AE Hyperbilirubinemia: subjects, n (%) ([2]; 4.5 mg/kg IM): 0 | AE Jaundice: subjects, n (%) ([2]; 4.5 mg/kg IM): 0 | AE Leukocytosis: subjects, n (%) ([2]; 4.5 mg/kg IM): 1 (12.5%) | AE Meningitis: subjects, n (%) ([2]; 4.5 mg/kg IM): 1 (12.5%) | AE Oral Candidiasis: subjects, n (%) ([2]; 4.5 mg/kg IM): 0 | AE Rash neonatal: subjects, n (%) ([2]; 4.5 mg/kg IM): 0 | AE Rash papular: subjects, n (%) ([2]; 4.5 mg/kg IM): 0 | AE Rash: subjects, n (%) ([2]; 4.5 mg/kg IM): 0 | AE Seborrhoeic dermatitis: subjects, n (%) ([2]; 4.5 mg/kg IM): 0 | AE Serum Glucose decreased: subjects, n (%) ([2]; 4.5 mg/kg IM): 0 | AE Serum sodium increased: subjects, n (%) ([2]; 4.5 mg/kg IM): 0 | AE Skin exfoliation: subjects, n (%) ([2]; 4.5 mg/kg IM): 0 | AE Thrombocytopenia: subjects, n (%) ([2]; 4.5 mg/kg IM): 1 (12.5%) | AE Umbilical Hernia: subjects, n (%) ([2]; 4.5 mg/kg IM): 0 | AE Vomiting: subjects, n (%) ([2]; 4.5 mg/kg IM): 0 | Total AEs ([2]; 4.5 mg/kg IM, N = 8): 8 | serious adverse event Meningitis: Outcome ([2]; 4.5 mg/kg, negative cultures): Resolved | subjects who experienced at least 1 TEAE ([2]; each treatment group): Greater than 30% | incidence of TEAEs, 3 stannsoporfin treatment groups versus placebo ([2]; final data): no statistically significant differences | Rash and PT, n (% of those with a rash) ([3]; 1.5 mg/kg IM): 2 (66.7%) | Subjects with any rash, n (%) ([3]; 1.5 mg/kg IM): 3 (17.6%) | types of rashes observed ([3]; 1.5 mg/kg IM): Contusion; also recorded: Diaper Dermatitis; also recorded: PT Induced rash*; also recorded: Desquamation; also recorded: Contact Dermatitis | Rash and PT, n (% of those with a rash) ([3]; 3.0 mg/kg IM): 3 (37.5%) | Subjects with any rash, n (%) ([3]; 3.0 mg/kg IM): 8 (44.4%) | types of rashes observed ([3]; 3.0 mg/kg IM): Neonatal Acne; also recorded: Erythema; also recorded: Seborrhea; also recorded: Diaper rash; also recorded: Flushing | Rash and PT, n (%) ([3]; 4.5 mg/kg IM): 1 (12.5%) | Subjects with any rash, n (%) ([3]; 4.5 mg/kg IM): 1 (13.3%) | types of rashes observed ([3]; 4.5 mg/kg IM): Erythema ** | inhibition of heme oxygenase (heme oxygenase): potent competitive inhibitor | effects on ECG, central nervous system, cardiovascular, pulmonary and renal functions [4]: no biologically significant effects
